Series [1] in a line: Clinical pharmacokinetics (plasma levels, distribution, excretion). From the text: The compound is available as anhydrous and crystalline forms; the pentahydrate crystalline form is the most common hydrate form. […] Proposed mechanisms of action involve its […], which allow it to act as a free radical scavenger and/or by covalent binding and inactivating the platinum compound.
(§1) Thiosulfate is an endogenous compound ubiquitously present in all cells and organs.

Series [2] can be described thus: Dynamic vapor sorption (DVS) isotherm. The settings on record: for DVS weight loss upon desorption: hysteresis observed.
For series [3] the following is noted: for Cisplatin Concentration: 24° C. The method, then: In one aspect, a mixed mode C-18 chromatography column is used in the assay, which has both hydrophobic interaction and ion exchange capabilities. In another aspect, the HPLC run time for the assay is about 2 min, about 5 min, about 7.5 min, about 10 min or about 15 min. In one aspect, the HPLC run time is about 5 min or about 10 min.
In another aspect, the concentration is analyzed using HPLC with a mixed mode C-18 chromatography column at a column temperature of 35° C., flow rate of 400 μL/min, and UV detection at 220 nm. In one aspect, the HPLC method comprises a step gradient of 100% Buffer A (0.5 mM ammonium formate in 9:1 water:acetonitrile, pH 4) for 3 min; then 90% Buffer A and 10% Buffer B (200 mM ammonium formate in 7:3 water:acetonitrile, pH 4) for 3.5 min; then 100% Buffer A for 4.5 min.
The method uses a Waters Acquity H-Class HPLC system with an Imtakt Scherzo SW-C18 mixed mode column. The HPLC method conditions are outlined in Table 7. […] This range covers greater than two orders of magnitude at dose-relevant concentrations.
Each sample was transferred to an HPLC vial and placed in an autosampler chamber held at 24° C. Samples were injected onto the HPLC system approximately every 30 minutes to obtain 4 time-points for each sample. A gradient was run and the retention time and peak area were obtained.

Series [4] has as its system cisplatin-induced ototoxicity. The source says:
Reference is made to International Patent Application Publication No. WO 2019/108592, which is a continuation of U.S. patent application Ser. No. 15/826,243, filed on Nov. 29, 2017, both of which are incorporated by reference herein in their entirety.

For series [5] the following is noted: animals.
Excerpt: as §1

A further series concerns human plasma proteins.
Excerpt: as §1

The conditions of series [6]: cited from earlier work.
The subject of series [7] is small cell lung cancer cell cultures. The settings on record: cited from earlier work.
[8] abbreviates: thiosulfate:cisplatin 5:1 (n = 2).
[9] abbreviates: thiosulfate:cisplatin 6:1 (n = 2).
Setting [10] is: thiosulfate:cisplatin 10:1 (n = 2).
Where [11] appears, read: preliminary clinical studies, dose equivalent to 5.1 g/m^2 sodium thiosulfate for injection.

Several values for one entry are separate records, joined by “and”; a condition that tells them apart may be missing. Equal values may be shown once. Read-outs that look alike come from different tables or passages of the source.

As to `O=S(O)(O)=S` [thiosulfate], in [1] (adult volunteers), the “Endogenous serum thiosulfate levels” value stood at 5.5 ± 1.8 µM.
Consider `O.O.O.O.O.O=S([O-])([O-])=S.[Na+].[Na+]` [sodium thiosulfate pentahydrate], for which, in [2], the “DVS weight gain upon sorption” value is reported as 81%, the “DVS weight loss upon drying” value is listed as 27% and the “DVS weight loss upon desorption” value is 51%.
As for `O=S([O-])([O-])=S.[Na+].[Na+]` [anhydrous sodium thiosulfate, Sodium thiosulfate anhydrous], in series [2], the “DVS weight change upon equilibration to 0% relative humidity” value is reported as “minimal weight change” and the “DVS weight loss upon desorption” value is listed as 51%.
As to `O=S([O-])([O-])=S.[Na+].[Na+]` [STS, sodium thiosulfate], the “Half-life of cisplatin (time to reach 333/2 μM)” value in series [3] (setting [8]) worked out at 3.3 h; in series [3] (setting [9]), 3.07 h; in series [3] (setting [10]), 2.27 h. The “Slope, linear regression of cisplatin conc. vs. time” value is −0.80 Cisplatin Area/min in series [3] (setting [8]), −0.87 Cisplatin Area/min in series [3] (setting [9]) and −1.13 Cisplatin Area/min in series [3] (setting [10]). Moreover, the “Cisplatin Concentration” value in series [3] (thiosulfate:cisplatin 5:1, 4 min) is 323.7 µM; in [3] (thiosulfate:cisplatin 5:1, 37 min) it was 294.2 µM and 294.0 µM; in series [3] (thiosulfate:cisplatin 5:1, 70 min), 266.8 µM and 268.0 µM; in [3] (thiosulfate:cisplatin 5:1, 103 min), 243.7 µM and 245.3 µM; in [3] (thiosulfate:cisplatin 6:1, 5 min), 325.4 µM and 324.5 µM; in [3] (thiosulfate:cisplatin 6:1, 38 min), 286.4 µM and 293.2 µM. The “Cisplatin Concentration” value in series [3] (thiosulfate:cisplatin 6:1, 71 min) was 259.8 µM and 266.2 µM; in series [3] (thiosulfate:cisplatin 6:1, 104 min), 235.6 µM and 240.5 µM; in series [3] (thiosulfate:cisplatin 10:1, 4 min), 319.5 µM; in [3] (thiosulfate:cisplatin 10:1, 5 min), 320.3 µM; in series [3] (thiosulfate:cisplatin 10:1, 37 min) it was 269.4 µM; in series [3] (thiosulfate:cisplatin 10:1, 38 min), 278.5 µM. In addition, the “Cisplatin Concentration” value was found to be 235.2 µM in series [3] (thiosulfate:cisplatin 10:1, 70 min); 239.6 µM in [3] (thiosulfate:cisplatin 10:1, 71 min); 205.6 µM in series [3] (thiosulfate:cisplatin 10:1, 103 min); 209.3 µM in [3] (thiosulfate:cisplatin 10:1, 104 min). The Prevention of ototoxicity result in [4] (doses equivalent to 6.4 to 12.8 g/m^2 sodium thiosulfate for injection) is given as “prevented ototoxicity”. The “Ototoxicity in pediatric patients treated with platinum based chemotherapeutics” value in series [4] (pediatric patients) was “reduces ototoxicity”. For the same compound, the Hearing protection result in series [4] (setting [11]) is given as “did not show hearing protection”. The Survival entry in [4] (treatment 6 hours after completion of each CIS infusion) is on record as “did not affect survival”. Moreover, the “Efficacy of cisplatin based chemotherapeutics when STS was administered” value in [4] (two phase III clinical trials, pediatric patients) is listed as “not affected”. For the same compound, the Plasma accumulation result in series [1] (administered on 2 consecutive days) is listed as “no plasma accumulation”. The compound further showed a Volume of distribution in series [1] (adults) of 0.23 L/kg. For the same compound, the “Maximum STS plasma levels” value in [1] (children and adults, 15-minute infusion, dose equivalent to 12.8 g/m^2 sodium thiosulfate for injection) is reported as “approximately 13.3 mM”. Also, in series [1] (human, in vivo), the “Distribution across the blood brain barrier or placenta” value is listed as “absent or limited”. The “Absorption after oral administration” value in series [1] (oral) is recorded as “poorly absorbed”. Besides, the Maximum plasma levels in [1] (setting [11]) is reported as 3.9 mM. The “Distribution to the cochlea” value in series [5] is “distribute to the cochlea”. For the same compound, the “Binding to human plasma proteins” value with human plasma proteins is recorded as “does not bind”. Also, for the setting “doses equivalent to 12.8 g/m^2 sodium thiosulfate for injection”, the Serum sodium levels result is “small, transient increase”. Further, for the setting “pediatric patients treated with a platinum based chemotherapeutic”, the “Renal or other toxicities” value is on record as “not exacerbate renal or other toxicities”. Besides, the “Excreted in the urine unmodified” value in series [6] (following IV administration) is “Up to 95%”. The Biological half-life in [6] (human, in vivo) was 0.65 hours. For the same compound, in series [6] (human, in vivo), the “Biological half-life, range dependent on dose” value is recorded as 16.5-182 minutes. For the same compound, the “Cytotoxicity of etoposide after immediate or delayed addition of STS” value in series [7] (incubation for 72 hours) is given as “no reduction of cytotoxicity”. Moreover, the “Anti-tumor activity of doxorubicin, carmustine (BCNU), paclitaxel, or methotrexate with STS” value in series [7] (similar studies) was “no reduction of anti-tumor activity”.

These data come from patent US11992530B2 (priority 2018, dated 2024).
